One assay deals with T1, PNPLA3 I148M (Homo sapiens, UniProt Q9NST1, I148M).
T1 sequence (Q9NST1 1-481 I148M): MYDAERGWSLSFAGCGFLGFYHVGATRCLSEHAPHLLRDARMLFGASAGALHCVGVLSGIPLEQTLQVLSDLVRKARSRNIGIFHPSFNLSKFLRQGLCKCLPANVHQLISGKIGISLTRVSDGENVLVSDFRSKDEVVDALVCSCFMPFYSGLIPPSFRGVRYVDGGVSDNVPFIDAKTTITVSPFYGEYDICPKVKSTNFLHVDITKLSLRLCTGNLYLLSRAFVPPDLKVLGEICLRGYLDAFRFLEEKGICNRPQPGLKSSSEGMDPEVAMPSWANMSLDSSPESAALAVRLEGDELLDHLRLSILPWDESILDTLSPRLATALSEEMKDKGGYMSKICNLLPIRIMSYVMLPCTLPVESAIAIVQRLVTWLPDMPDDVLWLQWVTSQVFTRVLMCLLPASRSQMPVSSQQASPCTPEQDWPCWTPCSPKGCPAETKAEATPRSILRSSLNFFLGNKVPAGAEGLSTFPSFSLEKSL
Nature of the assay: nanoDSF thermal shift, PNPLA3 I148M protein. Format: binding. Conditions: ligand 25 μM. From the text: To investigate the mode of action of NUV-244, we evaluated its direct binding to the PNPLA3 I148M protein using nano differential scanning fluorimetry (nanoDSF). In this assay, compounds that bind to a target protein can lead to thermal stabilization, preventing protein denaturation, which is reflected in a shift of the protein melting curve.
Full-length wild-type PNPLA3 (Q9NST1), mutant PNPLA3 (I148M), and PNPLA2 (Q96AD5) were cloned into the pVL1393 vector with an N-terminal Flag-Tag. Proteins were expressed in SF9 cells infected at a multiplicity of infection (MOI) of 1 for 72 hours. Protein purification was performed using a two-step process. The first step involved affinity purification using M2 anti-Flag agarose beads. This was followed by gel filtration chromatography using a Superdex 200 column. Thermal melting experiments were carried out using a Prometheus NT.48 instrument (NanoTemper Technologies). Proteins were prepared in 20 mM Tris-HCl pH 7.4, 100 mM NaCl, 5 % Glycerol, 2 mM DTT and 0.2 mg/mL was used as a final concentration in 50 μL volume. For binding experiments, ligands were added to the mixture at a final concentration of 25 μM, DMSO was used as control. […] The intrinsic protein fluorescence at 330 and 350 nm was recorded. Data were analysed using Prometheus NT.48 software. Thermal shifts (ΔTm) were calculated, and Z-scores greater than 6 indicated robust stabilization. […]
In general terms: DSF heats the sample and reads unfolding from a dye or from intrinsic fluorescence.

Assay [1] deals with Huh7 cells expressing unmodified PNPLA3 I148M. Nature of the assay: Incucyte growth curves, Huh7 expressing PNPLA3 I148M. The format is cell-based, human. Conditions: 1μM or 5μM. As to the method:
Huh7, Huh7 PNPLA3 I148M, Huh7 PNPLA3, Hep3b and LX-2 cells were seeded at a concentration of 1000 cells/well in 60 μl of growth medium on 384-well microtiter plates (Revvity, Waltham, MA, USA, PhenoPlate 384-well microplate, #6057308) and stored in a 37°C incubator with 5% CO2 and 95% humidity overnight. Next day cells were treated with DMSO as control (1% final concentration) or compound (1μM or 5μM final concentration) and cell density was recorded in the Incucyte® life cell imager (Sartorius, Göttingen, Germany) every 4 hours over a period of 5 days. Growth curves were generated by monitoring confluence over time. Proliferative capacity of PNPLA3 I148M-expressing cells was compared to control cells, and the restoration of proliferative fitness was analyzed.

As to `Cc1cccc(Cc2nc(C)c(C(=O)Nc3cc(O)ccc3Cl)s2)c1` [NUV-244], the “ΔTm PNPLA3 I148M” value on PNPLA3 I148M worked out at 5.82 °C. Also, the “proliferative fitness of Huh7 cells expressing PNPLA3 I148M” value in assay [1] is given as “restored”.

The record behind these values is article PMC12049818, “Identification of NUV-244 as a PNPLA3 I148M degrading small molecule” (iScience, 2025).
